Reference: patent US8642642B2, “Heterocyclic arylsulphones suitable for treating disorders that respond to modulation of the serotonin 5HT6 receptor” (Abbott Laboratories, priority 2006, dated 2014)
pKi: −log10 of the molar value.

Assays:
human 5-HT6 receptor = biological target: T1, human 5-HT6 receptor (Homo sapiens, UniProt P50406); assay: Human 5-HT6 receptor binding assay (3H-LSD displacement); conditions: membranes from HEK-293 cells, 2 nM 3H-LSD
T1 construct: expressed in transfected cells
Experimental: (§1) The substance to be tested was either dissolved in methanol/Chremophor® (BASF-AG) or in dimethyl sulfoxide and then diluted with water to the desired concentration.
The compounds were dissolved in a concentration of 10^−2 M or 10^−3 M in DMSO. Further dilutions were performed in incubation buffer.
The procedure for the binding assay was based on the method of Monsma et al. (1993) Mol Pharmacol 43: 320-327. The binding reaction was carried out in a total volume of 0.250 ml for 60 min at 37° C. Membranes from HEK-293 cells stably expressing the human 5-HT6 receptor were incubated with 2 nM ^3H-LSD in the presence or absence of various concentrations of test compound for 60 min at 37° C. Non-specific binding was defined with 100 μM Serotonin (5-HT). Assays were performed in duplicate. Bound and free radioligand was separated by filtration and bound radioactivity determined by liquid scintillation counting.
The specific ligand binding to the receptors was defined as the difference between the total binding and the nonspecific binding determined in the presence of an excess of unlabelled 5-HT. The results are expressed as a percent of control specific binding obtained in the presence of compound. The IC50 values (concentration causing a half-maximal inhibition of control specific binding) and Hill coefficients (nH) were determined by non-linear regression analysis of the competition curves using Hill equation curve fitting.
The inhibition constants (Ki) were calculated from the Cheng Prusoff equation (Ki=IC50/(1+(L/KD)), where L=concentration of radioligand in the assay, and KD=affinity of the radioligand for the receptor).

[1] = biological target: T2, human dopamine D3 receptors (Homo sapiens, UniProt P35462); assay: Dopamine D3 receptor binding ([125I]-iodosulpride); conditions: for pKi: membranes from HEK-293 cells, 0.1 nM [125I]-iodosulpride; for Ki(D2)/Ki(D3): ratio of receptor binding constants, D2L versus D3
T2 construct: expressed in transfected cells
Experimental: as §1
Each assay mixture was run in triplicate.
The incubation buffer contained 50 mM tris, 120 mM NaCl, 5 mM KCl, 2 mM CaCl2, 2 mM MgCl2 and 0.1% bovine serum albumin, 10 μM quinolone and 0.1% ascorbic acid (prepared fresh daily). The buffer was adjusted to pH 7.4 with HCl.
After having been incubated at 25° C. for 60 minutes, the assay mixtures were filtered through a Whatman GF/B glass fiber filter under vacuum using a cell collecting device. The filters were transferred to scintillation viols using a filter transfer system. After 4 ml of Ultima Gold® (Packard) have been added, the samples were shaken for one hour and the radioactivity was then counted in a Beta-Counter (Packard, Tricarb 2000 or 2200CA). The cpm values were converted into dpm using a standard quench series and the program belonging to the instrument.
The inhibition curves were analyzed by means of iterative nonlinear regression analysis using the Statistical Analysis System (SAS) which is similar to the “LIGAND” program described by Munson and Rodbard.

T1 sequence (P50406 whole entry): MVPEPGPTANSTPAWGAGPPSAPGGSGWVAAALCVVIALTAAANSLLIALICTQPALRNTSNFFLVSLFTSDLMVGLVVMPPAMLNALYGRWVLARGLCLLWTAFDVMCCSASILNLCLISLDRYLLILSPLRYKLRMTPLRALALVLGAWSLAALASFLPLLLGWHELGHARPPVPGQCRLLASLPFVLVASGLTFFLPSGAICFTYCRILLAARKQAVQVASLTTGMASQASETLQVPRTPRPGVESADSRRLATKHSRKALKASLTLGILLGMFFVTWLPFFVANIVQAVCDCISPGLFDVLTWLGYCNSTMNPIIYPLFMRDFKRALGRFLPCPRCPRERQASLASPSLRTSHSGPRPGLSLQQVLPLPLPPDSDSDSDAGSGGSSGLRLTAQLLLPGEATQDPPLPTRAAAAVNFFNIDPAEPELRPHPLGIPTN
T2 sequence (P35462 whole entry): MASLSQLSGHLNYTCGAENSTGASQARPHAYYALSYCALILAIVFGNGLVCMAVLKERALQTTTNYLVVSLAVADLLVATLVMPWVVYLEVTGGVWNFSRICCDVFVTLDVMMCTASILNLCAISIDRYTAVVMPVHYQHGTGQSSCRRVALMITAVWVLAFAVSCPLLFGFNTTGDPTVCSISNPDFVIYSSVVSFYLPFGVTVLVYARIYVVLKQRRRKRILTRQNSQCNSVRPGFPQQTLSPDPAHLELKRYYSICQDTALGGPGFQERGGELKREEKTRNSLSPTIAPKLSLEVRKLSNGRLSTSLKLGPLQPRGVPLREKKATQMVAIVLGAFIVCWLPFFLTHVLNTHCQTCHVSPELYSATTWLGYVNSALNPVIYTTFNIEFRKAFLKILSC

CCCN1CC[C@@H](c2ccc(NS(=O)(=O)c3ccc(C)s3)cc2)C1.Cl [Example 90, 5-Methyl-thiophene-2-sulfonic acid [4-((S)-1-propyl-pyrrolidin-3-yl)-phenyl]-amide hydrochloride] was tested, and the pKi (human 5-HT6 receptor) was 8.00 to 9.00, the pKi [1] was 8.00 to 9.00 and the “Ki(D2)/Ki(D3)” value [1] was “++++ (>150)”.
For CCCN1CC[C@@H](c2ccc(NS(=O)(=O)c3cccc(F)c3)cc2)C1.O=C(O)C(F)(F)F [Example 97, 3-Fluoro-N-[4-((S)-1-propyl-pyrrolidin-3-yl)-phenyl]-benzenesulfonamide trifluoroacetate], the pKi (human 5-HT6 receptor) was 8.00 to 9.00, the pKi [1] was 7.30 to 8.00 and the “Ki(D2)/Ki(D3)” value [1] was “++ (between 50 and 100)”.
For CCCN1CC[C@@H](c2ccc(NS(=O)(=O)c3cccc(Cl)c3)cc2)C1 [Example 98, 3-Chloro-N-[4-((S)-1-propyl-pyrrolidin-3-yl)-phenyl]-benzenesulfonamide], the pKi (human 5-HT6 receptor) was 8.00 to 9.00, the pKi [1] was 7.30 to 8.00 and the “Ki(D2)/Ki(D3)” value [1] was “+ (between 10 and 50)”.
For CCCN1CC[C@@H](c2ccc(NS(=O)(=O)c3cccc(-c4csc(C)n4)c3)cc2)C1 [Example 99, 3-(2-Methyl-thiazol-4-yl)-N-[4-((S)-1-propyl-pyrrolidin-3-yl)-phenyl]-benzenesulfonamide], the pKi (human 5-HT6 receptor) was 8.00 to 9.00, the pKi [1] was 6.82 to 7.30 and the “Ki(D2)/Ki(D3)” value [1] was “+ (between 10 and 50)”.
For C=CCN1CC[C@@H](c2ccc(NS(=O)(=O)c3cccc(C(F)(F)F)c3)cc2)C1 [Example 100, N-[4-((S)-1-Allyl-pyrrolidin-3-yl)-phenyl]-3-trifluoromethyl-benzenesulfonamide], the pKi (human 5-HT6 receptor) was 8.00 to 9.00, the pKi [1] was 7.30 to 8.00 and the “Ki(D2)/Ki(D3)” value [1] was “+++ (between 100 and 150)”.
With CCCN1CC[C@@H](c2ccc(NS(=O)(=O)c3ccc(F)c(C(F)(F)F)c3)cc2)C1 [Example 102, 4-Fluoro-N-[4-((S)-1-propyl-pyrrolidin-3-yl)-phenyl]-3-trifluoromethyl-benzenesulfonamide] the pKi (human 5-HT6 receptor) was 7.30 to 8.00, the pKi [1] was 7.30 to 8.00 and the “Ki(D2)/Ki(D3)” value [1] was “++ (between 50 and 100)”.
In the case of CCCN1CC[C@@H](c2ccc(NS(=O)(=O)c3cc(F)cc(C(F)(F)F)c3)cc2)C1.Cl [Example 103, 3-Fluoro-N-[4-((S)-1-propyl-pyrrolidin-3-yl)-phenyl]-5-trifluoromethyl-benzenesulfonamide hydrochloride], the pKi (human 5-HT6 receptor) was 7.30 to 8.00, the pKi [1] was 6.82 to 7.30 and the “Ki(D2)/Ki(D3)” value [1] was “++ (between 50 and 100)”.
